According to US20140128409A1, “MEDICAMENTS FOR THE TREATMENT OR PREVENTION OF FIBROTIC DISEASES” (BOEHRINGER INGELHEIM INTERNATIONAL GMBH, priority 2004, published 2014):

Experiments:
Type in all cases: in vivo, rat
[1] = test system: procollagen I gene expression; test: Expression of fibrotic marker gene procollagen I in lung following bleomycin-induced pulmonary fibrosis (real time PCR); conditions: bleomycin-treated rats, 50 mg/kg daily, day 21, versus bleomycin + vehicle; FIG. 2
Description: (§1) All experiments were performed in accordance with German guidelines for animal welfare, performed by persons certified to work with animals and approved by the responsible authorities. Male Wistar rats were intratracheally injected with Bleomycin sulfate (10 U/kg body weight in 300 μl saline) or saline alone (saline control) using a catheter (0.5 mm internal diameter, 1.0 mm external diameter) through the nasal passage, following exposure to the anaesthetic Isofluorane for 5 minutes. The following day, the rats were orally treated with Example A (compound (134)) or saline suspended in 1 ml 0.1% Natrosol. Control rats were administered 1 ml 0.1% Natrosol (vehicle control).
(§2) 21 days following bleomycin instillation, the rats were killed with a lethal intraperitoneal injection of Narcoren™ (Pentobarbital Sodium, Rhone Merieux). The lungs were then removed, blotted dry and half was snap frozen in liquid nitrogen and stored at −80° C. The other half was fixed in 4% formalin for subsequent paraffin embedding and histology.
(§3) (B) Effect of a representative compound on expression of fibrotic marker genes following bleomycin-induced pulmonary fibrosis.
(§4) One part of the frozen lung tissue dedicated to investigation of gene expression was cut into small pieces using a sterile scalpel blade. […] The concentration of each sample was then measured using a spectrophotometer. […]

[2] = test system: bleomycin-induced pulmonary fibrosis; test: Lung morphology following bleomycin-induced pulmonary fibrosis (histology, Masson's Trichrome collagen staining); conditions: male Wistar rats, bleomycin 10 U/kg intratracheally; 50 mg/kg daily orally, days 1-21; histology 21 days after instillation; FIG. 1C
Description: (A) Effect of a representative compound on lung morphology following bleomycin-induced pulmonary fibrosis. All experiments were performed in accordance with German guidelines for animal welfare, performed by persons certified to work with animals and approved by the responsible authorities. Male Wistar rats were intratracheally injected with Bleomycin sulfate (10 U/kg body weight in 300 μl saline) or saline alone (saline control) using a catheter (0.5 mm internal diameter, 1.0 mm external diameter) through the nasal passage, following exposure to the anaesthetic Isofluorane for 5 minutes. The following day, the rats were orally treated with Example A (compound (134)) or saline suspended in 1 ml 0.1% Natrosol. Control rats were administered 1 ml 0.1% Natrosol (vehicle control). [table] 21 days following bleomycin instillation, the rats were killed with a lethal intraperitoneal injection of Narcoren™ (Pentobarbital Sodium, Rhone Merieux). The lungs were then removed, blotted dry and half was snap frozen in liquid nitrogen and stored at −80° C. The other half was fixed in 4% formalin for subsequent paraffin embedding and histology. The lung tissues fixed in 4% formalin were embedded into paraffin and 5 μm sections were cut using a microtome (Leica SM200R) and placed on poly-L-lysine coated slides. […] Collagen deposition was assessed using Masson's Trichrome staining.

[3] = test system: fibronectin gene expression; test: Expression of fibrotic marker gene fibronectin in lung following bleomycin-induced pulmonary fibrosis (real time PCR); conditions: bleomycin-treated rats, 50 mg/kg daily, day 21, versus bleomycin + vehicle; FIG. 3
Description: as §1, §2, §3, §4

CN(C)Cc1ccc(N/C(=C2\C(=O)Nc3cc(F)ccc32)c2ccc(CCC(=O)O)cc2)cc1 [Example A, 3-Z-[1-(4-dimethylaminomethylanilino)-1-(4-(2-carboxyethyl)phenyl)methylene]-6-fluoro-2-indolinone]
procollagen I gene expression in lung (normalized to 18S) [1]: significant (p≦0.0001) inhibition | fibroblast infiltration or extracellular matrix deposition in lung [2]: little or no fibroblast infiltration or extracellular matrix deposition has occurred | lung fibrosis (lung morphology, collagen deposition staining) [2]: consistent, nearly complete reversal of lung fibrosis | fibronectin gene expression in lung (normalized to 18S) [3]: significant (p≦0.0001) inhibition
